Values of other authors as cited in patent US12133892B2, “Methods and compositions for increasing susceptibility to radiation treatment by inhibiting suppression of numerical chromosomal instability of cancer cells” (MEMORIAL SLOAN KETTERING CANCER CENTER, priority 2015, dated 2024).
Values belong to the molecule of their own block, whether it stands above or below them.

How the values were obtained:
[1] = target: Bub1 (Homo sapiens, UniProt O43683)
[2] = tested on: breast cancer cell lines
[3] = tested on: Kif2b; conditions: read-out: IC50 in inhibiting Kif2b
[4] = target: T1, MCAK (Homo sapiens, UniProt Q99661); conditions: read-out: IC50 in inhibiting MCAK
T1 sequence (Q99661 1-725): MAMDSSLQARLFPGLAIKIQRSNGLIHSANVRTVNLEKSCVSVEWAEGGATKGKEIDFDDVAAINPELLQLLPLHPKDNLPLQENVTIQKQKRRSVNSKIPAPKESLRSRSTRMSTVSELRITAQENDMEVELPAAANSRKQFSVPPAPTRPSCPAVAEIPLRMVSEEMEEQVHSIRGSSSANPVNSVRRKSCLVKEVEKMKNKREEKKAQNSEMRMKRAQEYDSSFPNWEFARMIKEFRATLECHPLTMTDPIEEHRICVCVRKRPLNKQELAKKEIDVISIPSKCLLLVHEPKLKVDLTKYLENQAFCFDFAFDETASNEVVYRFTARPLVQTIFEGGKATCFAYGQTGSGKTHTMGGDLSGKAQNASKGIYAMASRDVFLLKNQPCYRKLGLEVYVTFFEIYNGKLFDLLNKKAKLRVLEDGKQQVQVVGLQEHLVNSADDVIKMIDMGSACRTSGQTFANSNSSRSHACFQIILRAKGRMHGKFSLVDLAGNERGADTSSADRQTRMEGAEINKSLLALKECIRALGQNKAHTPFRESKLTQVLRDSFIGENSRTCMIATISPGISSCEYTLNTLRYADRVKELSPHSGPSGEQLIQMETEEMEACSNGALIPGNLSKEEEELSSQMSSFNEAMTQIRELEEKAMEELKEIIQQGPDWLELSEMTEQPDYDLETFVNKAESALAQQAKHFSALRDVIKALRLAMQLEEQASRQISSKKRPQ

[5] = tested on: human glioblastoma; conditions: 100 mg/kg
[6] = tested on: BubR1
[7] = tested on: triple negative breast cancer, colon cancer and liver cancer; conditions: animal models of triple negative breast cancer
[8] = mice, 7 days, 7.5, 22.5, 75.0 mg/kg twice a day oral
[9] = tested on: breast cancer model; conditions: mice, twice a day for 28 days, orally 10, 25, 50 mg/kg
[10] = target: T2, PLK4 (Homo sapiens, UniProt O00444); conditions: in vitro; read-out: inhibition constant (Ki)
T2 sequence (O00444 1-970): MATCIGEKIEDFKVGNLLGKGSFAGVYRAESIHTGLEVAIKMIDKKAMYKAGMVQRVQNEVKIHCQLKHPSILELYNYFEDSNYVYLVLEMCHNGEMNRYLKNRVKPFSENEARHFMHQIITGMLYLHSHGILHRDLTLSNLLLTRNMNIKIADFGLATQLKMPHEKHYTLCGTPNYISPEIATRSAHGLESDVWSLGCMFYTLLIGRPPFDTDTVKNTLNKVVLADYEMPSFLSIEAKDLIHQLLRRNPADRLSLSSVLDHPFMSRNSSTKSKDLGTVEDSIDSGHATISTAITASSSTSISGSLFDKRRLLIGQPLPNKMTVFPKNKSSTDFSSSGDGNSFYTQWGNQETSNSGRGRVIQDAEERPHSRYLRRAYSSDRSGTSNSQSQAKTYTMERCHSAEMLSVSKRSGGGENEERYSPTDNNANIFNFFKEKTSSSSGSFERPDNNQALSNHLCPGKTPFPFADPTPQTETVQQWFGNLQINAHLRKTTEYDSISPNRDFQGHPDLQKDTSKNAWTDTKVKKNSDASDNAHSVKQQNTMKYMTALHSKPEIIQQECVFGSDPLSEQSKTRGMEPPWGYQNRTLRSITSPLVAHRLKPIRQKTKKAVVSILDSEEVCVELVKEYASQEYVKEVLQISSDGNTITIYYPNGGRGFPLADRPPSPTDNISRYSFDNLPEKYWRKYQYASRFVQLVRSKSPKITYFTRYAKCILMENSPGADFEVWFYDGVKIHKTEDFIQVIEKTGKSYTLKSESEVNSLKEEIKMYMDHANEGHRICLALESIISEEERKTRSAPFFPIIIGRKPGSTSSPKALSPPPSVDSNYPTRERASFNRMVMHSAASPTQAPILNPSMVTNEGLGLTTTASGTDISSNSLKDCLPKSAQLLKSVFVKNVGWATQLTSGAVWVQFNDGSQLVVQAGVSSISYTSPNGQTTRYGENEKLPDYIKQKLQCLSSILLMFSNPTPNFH

[11] = tested on: centrosome

Bub1, sequence (O43683 whole entry, species assumed): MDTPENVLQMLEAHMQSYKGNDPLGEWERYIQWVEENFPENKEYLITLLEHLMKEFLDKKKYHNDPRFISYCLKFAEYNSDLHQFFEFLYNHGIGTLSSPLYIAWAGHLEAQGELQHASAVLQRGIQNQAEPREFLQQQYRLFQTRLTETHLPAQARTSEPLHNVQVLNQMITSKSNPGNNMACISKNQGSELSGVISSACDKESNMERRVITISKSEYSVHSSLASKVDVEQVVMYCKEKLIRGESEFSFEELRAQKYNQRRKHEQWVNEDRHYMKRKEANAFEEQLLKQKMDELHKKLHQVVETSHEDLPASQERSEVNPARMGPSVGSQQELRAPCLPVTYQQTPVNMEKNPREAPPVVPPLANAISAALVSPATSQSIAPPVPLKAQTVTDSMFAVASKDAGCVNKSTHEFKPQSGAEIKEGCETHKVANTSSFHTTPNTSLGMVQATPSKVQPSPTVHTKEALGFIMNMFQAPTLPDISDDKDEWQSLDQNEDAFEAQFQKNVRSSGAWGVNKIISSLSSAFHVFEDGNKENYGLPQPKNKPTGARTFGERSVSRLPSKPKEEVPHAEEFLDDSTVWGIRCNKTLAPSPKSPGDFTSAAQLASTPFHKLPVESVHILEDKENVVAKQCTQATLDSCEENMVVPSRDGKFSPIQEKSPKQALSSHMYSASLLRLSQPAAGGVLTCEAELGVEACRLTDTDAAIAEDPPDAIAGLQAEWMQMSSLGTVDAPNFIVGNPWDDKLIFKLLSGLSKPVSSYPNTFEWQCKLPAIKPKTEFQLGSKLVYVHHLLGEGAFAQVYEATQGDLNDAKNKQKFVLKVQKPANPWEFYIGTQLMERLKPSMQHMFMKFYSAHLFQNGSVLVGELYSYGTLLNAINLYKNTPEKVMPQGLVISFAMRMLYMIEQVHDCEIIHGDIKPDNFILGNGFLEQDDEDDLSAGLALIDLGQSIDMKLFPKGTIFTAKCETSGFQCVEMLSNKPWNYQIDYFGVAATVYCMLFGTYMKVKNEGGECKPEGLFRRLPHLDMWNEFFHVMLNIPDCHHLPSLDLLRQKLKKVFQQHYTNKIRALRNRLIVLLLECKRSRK

IC50 [1]: ~250 nM
Structure (SMILES): CC(C)(C)n1nc(Cc2ccccc2O)c2c(N)ncnc21 [2OH-BNPP1]

Structure (SMILES): COc1ccc2c(c1)[C@]1(C[C@H]1c1ccc3c(/C=C/c4ccc(CN5C[C@@H](C)O[C@@H](C)C5)cc4)n[nH]c3c1)C(=O)N2 [CFI-400945]
chromosome missegregation rates [2]: increase chromosome missegregation rates

IC50 [3]: 1200 nM
IC50 [4]: 4600 nM
Structure (SMILES): CC1=C(C(=O)OC(C)C)C(c2ccc(Cl)cc2)n2c(s/c(=C\c3ccc(OCC(=O)O)cc3)c2=O)=N1 (stereo not drawn) [DHTP, (Z)-2-(4-((5-(4-chlorophenyl)-6-(isopropoxycarbonyl)-7-methyl-3-oxo-3,5-dihydro-2H-thiazolo[3,2-a]pyrimidin-2-ylidene)methyl)phenoxy)acetic acid]

Structure (SMILES): CCc1cccc(CC)c1NC(=O)c1nn(C)c2c1CCc1cnc(Nc3ccc(C(=O)NC4CCN(C)CC4)cc3OC(F)(F)F)nc1-2 [NMS-P715]
radiosensitization of human glioblastoma [5]: enhances radiosensitization of human glioblastoma

Structure (SMILES): COc1cc2c(cc1F)C(c1ccccc1Cl)=Nc1c(n[nH]c1C)N2 [R1530]
expression of mitotic checkpoint kinase BubR1 [6]: downregulates

Structure (SMILES): COc1ccc(Oc2cc(C)c(-c3csc(NC(=O)c4ccncc4)n3)c(C)c2)cc1 [TAI-1]
oral efficacy in vivo [7]: effective orally
change in body weight, organ weight, and plasma indices [8]: no significant change

Structure (SMILES): COCCOc1cnc(Sc2cc(C)c(-c3csc(NC(=O)c4ccncc4)n3)c(C)c2)cn1 [TAI-95]
oral efficacy in vivo [9]: excellent oral efficacy

Structure (SMILES): COc1c(Nc2cc(C)[nH]n2)nc(Sc2ccc(S(=O)(=O)Cc3cccc([N+](=O)[O-])c3F)cc2F)nc1N1CCCCC1 [centrinone-B]
Ki [10]: 0.6 nM
centrosome depletion at concentration [11]: 500 nM

Structure (SMILES): COc1c(Nc2cc(C)[nH]n2)nc(Sc2ccc(S(=O)(=O)Cc3cccc([N+](=O)[O-])c3F)cc2F)nc1N1CCOCC1 [centrinone]
centrosome depletion at concentration [11]: 100 nM
